Data published in patent publication US20240294509A1, “PYRIDAZINONE COMPOUND AS PARP7 INHIBITOR” (Euregen Biopharma Co., Ltd., priority 2021, published 2024).

Experiments:
[1] = test system: NCI-H1373 cells; experiment: Inhibitory effect on the proliferation of NCI-H1373 cells (CellTiter-Glo); type: cell-based; settings: Homo sapiens, 144 h, 6 days treatment
From the text: 1. Experimental Principle: NCI-H1373 cells are a type of lung adenocarcinoma cells that overexpress PARP7.
2. Experimental Materials: NCI-H1373 cells were obtained from Nanjing Cobioer Biosciences Co., Ltd. CellTiter-Glo® (cell viability chemiluminescent assay reagent) was purchased from Promega (Catalog No. G7571). RPMI-1640 medium was obtained from ATCC (Catalog No. 30-2001). RPMI-1640 medium, penicillin/streptomycin antibiotics were purchased from WISENT. Fetal bovine serum was obtained from Biosera. The Nivo multimode reader was procured from PerkinElmer.
3. Experimental Method: NCI-H1373 cells were seeded in a white 96-well plate with 80 μL of cell suspension per well, containing 3000 NCI-H1373 cells. The cell plate was incubated overnight in a carbon dioxide (CO2) incubator.
The test compounds were serially diluted 5-fold to the 9th concentration, ranging from 2 mmol/L to 5.12 nmol/L, for a duplicate assay. 78 μL of culture medium was added to the intermediate plate, and then, according to the corresponding positions, 2 μL of each gradient-diluted compound was transferred to the intermediate plate. After thorough mixing, 20 μL of the compound solution was transferred to the cell plate. The compound concentration range in the cell plate ranged from 10 μmol/L to 0.0256 nmol/L. The cell plate was incubated in a CO2 incubator for 6 days.
Another cell plate was prepared, and the signal values were read on the day of dosing to obtain the maximum value referred to as Max in the following equation for data analysis. 25 μL of cell viability chemiluminescent assay reagent was added to each well of this cell plate, and it was incubated at room temperature for 10 minutes to stabilize the luminescent signal. Readings were taken using a multimode reader.
After 6 days of treatment, 25 μL of cell viability chemiluminescent assay reagent was added to each well of the cell plate, and it was incubated at room temperature for 10 minutes to stabilize the luminescent signal. Readings were taken using a multimode reader.
The IC50 value was determined by four-parameter curve fitting (obtained by using the “log(inhibitor) vs. response—Variable slope” model in GraphPad Prism).

[2] = Pharmacokinetic properties in SD rats after single intravenous injection and oral administration; type: in vivo; settings: SD male rats
From the text: 1. Test purpose: to determine the pharmacokinetic characteristics of some of the example compound of the present invention in SD rats after single intravenous injection(IV) and oral administration(PO) by LC-MS/MS method.
2. Test material: the test drug is self-made from the example compounds of the present invention; Positive control compound RBN2397 purchased from Shanghai BioChemPartner Biotechnology Co., Ltd. SD male rats were obtained from the Laboratory Animal Management Department of Shanghai Family Planning Research Institute. Animal production license number (SCXK (Shanghai) 2018-0006).
Preparation of 0.5% methyl cellulose: 5 g of methyl cellulose were weighed and dissolved in 1000 mL of purified water.
Preparation of oral formulation: A required amount of test compound was weighed and dissolved in 0.5% methyl cellulose solution to obtain a suspension or solution of 0.5 mg/mL or 1.0 mg/mL.
Preparation of intravenous injection formulation: A required amount of test compound was weighed, and dissolved in 0.5 mL of dimethyl sulfoxide to prepare a solution of 4 mg/mL. 0.25 mL of the above solution was added into 0.5 mL of polyethylene glycol 15 hydroxystearate (solutol) and 4.25 mL of physiological saline to obtain a solution of 0.2 mg/mL.
Administration: SD male rats were orally administered (PO) after fasting overnight, and fed 4 hours after administration.
Sample Collection: blood was collected through jugular vein or other suitable vein, and 0.2 mL of blood was collected at each time point. Samples were placed into tubes containing ethylenediamine tetraacetic acid dipotassium salt and kept on ice before centrifugation. Within 1 hour after blood collection, the blood samples were centrifuged at 2-8° C. and 6800 g for 6 minutes and stored at −80° C. The time point for blood collection was 0.083, 0.25, 0.5, 1, 2, 4, 8 and 24 hours after intravenous administration, and 0.25, 0.5, 1, 2, 4, 6, 8 and 24 hours after oral administration.
The intravenous dosage was 1 mg/kg, and the pharmacokinetic parameters for oral administration were standardized to a 1 mg/kg dose.

[3] = biological target: PARP7 (Homo sapiens (Human), UniProt Q7Z3E1); experiment: biochemical
Experimental: (§1) Experimental Principle: The inhibitory effect of the test substance on the enzymatic activity of PARP1/7 is assessed by using an Enzyme-Linked Immunosorbent Assay (ELISA).
(§2) (1) Pre-coating: Add 100 μL of a PBS buffer (10 mM NaH2PO4, 10 mM Na2HPO4, 150 mM NaCl, pH 7.4) containing 20 g/mL of histone to each well of a 96-well plate, and incubate at 4° C. overnight.
(§3) (3) Add 5 μL of the test substance or solvent to each well.
(§4) (4) Add 20 μL of(PARP1 or PARP7 (50 ng/well), and incubate at 30° C. for 1 hour.
(§5) (5) Add 50 μL of streptavidin-HRP to the reaction mixture, and incubate at 30° C. for 30 minutes.
(§6) (6) Finally, add 100 μL of a citrate buffer containing H2O2 and luminol (0.1 M, pH 5.4), and measure the luminescent signal using a microplate reader (Molecular Devices SpectraMax M5).
(§7) (7) Calculate the inhibition rate of PARP1 or PARP7 enzyme activity as [(control group−treatment group)/control group]×10000. Fit the dose-response data with standard dilutions using Prism GraphPad software and calculate the concentration required to achieve 5000 inhibition of PARP1 or PARP7 enzyme activity (IC50).

[4] = biological target: PARP1 (Homo sapiens (Human), UniProt P09874); experiment: biochemical
Experimental: as §1, §2, §3, §4, §5, §6, §7

[5] = rat, plasma, Intravenous injection, 1 mg/kg
[6] = rat, plasma, Oral gavage, standardized to a 1 mg/kg dose

Sequence of PARP7 (Q7Z3E1 whole entry): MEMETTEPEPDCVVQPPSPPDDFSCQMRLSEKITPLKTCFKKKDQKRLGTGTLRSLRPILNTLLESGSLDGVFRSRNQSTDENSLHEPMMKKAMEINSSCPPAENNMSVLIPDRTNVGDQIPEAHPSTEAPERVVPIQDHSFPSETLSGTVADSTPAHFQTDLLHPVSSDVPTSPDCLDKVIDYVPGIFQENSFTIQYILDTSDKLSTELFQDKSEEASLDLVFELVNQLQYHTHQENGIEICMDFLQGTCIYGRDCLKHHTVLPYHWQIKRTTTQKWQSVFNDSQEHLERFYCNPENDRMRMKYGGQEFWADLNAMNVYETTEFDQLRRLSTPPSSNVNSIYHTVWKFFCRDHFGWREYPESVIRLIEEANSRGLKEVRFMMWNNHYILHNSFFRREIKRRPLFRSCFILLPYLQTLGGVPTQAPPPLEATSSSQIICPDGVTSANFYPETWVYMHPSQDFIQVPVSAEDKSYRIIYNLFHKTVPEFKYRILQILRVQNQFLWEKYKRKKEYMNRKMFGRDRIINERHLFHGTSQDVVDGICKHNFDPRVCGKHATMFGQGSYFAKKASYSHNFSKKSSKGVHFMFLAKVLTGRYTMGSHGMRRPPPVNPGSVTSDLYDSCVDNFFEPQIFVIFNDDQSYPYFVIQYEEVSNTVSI
Sequence of PARP1 (P09874 whole entry): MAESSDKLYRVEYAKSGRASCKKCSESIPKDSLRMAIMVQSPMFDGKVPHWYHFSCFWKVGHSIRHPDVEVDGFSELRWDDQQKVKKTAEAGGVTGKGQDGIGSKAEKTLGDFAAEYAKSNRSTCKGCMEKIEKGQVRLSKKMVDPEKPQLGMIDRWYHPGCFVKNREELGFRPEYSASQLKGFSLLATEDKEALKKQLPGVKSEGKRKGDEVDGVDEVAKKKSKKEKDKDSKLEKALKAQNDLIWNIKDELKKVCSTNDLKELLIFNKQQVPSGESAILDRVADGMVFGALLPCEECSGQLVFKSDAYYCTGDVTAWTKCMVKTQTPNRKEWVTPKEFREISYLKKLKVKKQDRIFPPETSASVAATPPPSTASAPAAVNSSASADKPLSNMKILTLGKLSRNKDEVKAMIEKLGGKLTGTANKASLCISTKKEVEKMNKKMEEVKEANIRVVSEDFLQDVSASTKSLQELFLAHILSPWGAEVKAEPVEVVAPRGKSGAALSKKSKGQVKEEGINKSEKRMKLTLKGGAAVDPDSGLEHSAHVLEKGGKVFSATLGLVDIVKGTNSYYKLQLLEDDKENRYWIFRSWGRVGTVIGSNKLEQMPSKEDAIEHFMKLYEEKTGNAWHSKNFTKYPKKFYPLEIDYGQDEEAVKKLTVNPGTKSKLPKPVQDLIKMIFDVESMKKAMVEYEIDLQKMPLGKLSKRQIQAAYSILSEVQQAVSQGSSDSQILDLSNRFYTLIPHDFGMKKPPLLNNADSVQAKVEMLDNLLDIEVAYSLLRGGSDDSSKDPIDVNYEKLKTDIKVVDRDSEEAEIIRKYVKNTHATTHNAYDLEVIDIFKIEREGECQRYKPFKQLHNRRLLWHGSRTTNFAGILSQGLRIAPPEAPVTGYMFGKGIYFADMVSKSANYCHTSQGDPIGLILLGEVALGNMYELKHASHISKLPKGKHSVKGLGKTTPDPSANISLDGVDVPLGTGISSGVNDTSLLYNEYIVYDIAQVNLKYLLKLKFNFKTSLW

O=C(CC[C@@H]1C[C@@H](Oc2ccccc2)CN1c1cc(C(F)(F)F)c(=O)[nH]n1)N1CCN(c2ncc(C(F)(F)F)cn2)CC1 [Compound 21]
IC50 [1]: 73.6 nM | F ([2]; Oral gavage, oral bioavailability): 21.18% | AUC(0-inf) [2, 5]: 482 ng·h/mL | Cmax [2, 5]: 1210 ng/mL | clearance [2, 5]: 36.9 mL/min/kg | half-life [2, 5]: 30.6 min | AUC(0-inf) [2, 6]: 111 ng·h/mL | Cmax [2, 6]: 40.2 ng/mL | IC50 [3]: 3.4 nM | IC50 [4]: 816 nM
